Reference: ChEMBL document CHEMBL6071193, “Structure-Activity Relationship of Potent, Selective, and Orally Bioavailable Molecular Glue Degraders of CK1α” (ACS Med Chem Lett, 2024)
Values after ≈ are worked out from the molar mass of the structure shown. Active and inactive are the calls of the source. No cut-off for these calls is given here.

Columns and labels:
[1] = Tmax in female CD-1 mouse at 10 mg/kg, po administered as 5% v/v NMP, 5% v/v solutol HS-15, 20% PEG 400 and 70% v/v normal saline formulation and measured after 24 hrs; type: ADME, organism-based; details: in vivo
[2] = Apparent permeability across basolateral to apical side in MDCK-II cells at 10 micromol/L incubated for 1 hrs by UPLC/MS analysis; type: ADME, cell-based, Canis lupus familiaris; details: dog, mdck-ii, 1 h, 10 µM, dose 10 µmol/L
[3] = biological target: T1, Cereblon/Casein kinase I alpha (Homo sapiens, UniProt P48729+Q96SW2); assay: PROTAC activity at CRBN/HiBiT-tagged CK1alpha in HEK293 cells transfected with LgBiT expression vector assessed as induction of CK1alpha degradation measured after 24 hrs by luminescence based GloMax Discover assay; type: cell-based
Target sequence in this assay (P48729 whole entry): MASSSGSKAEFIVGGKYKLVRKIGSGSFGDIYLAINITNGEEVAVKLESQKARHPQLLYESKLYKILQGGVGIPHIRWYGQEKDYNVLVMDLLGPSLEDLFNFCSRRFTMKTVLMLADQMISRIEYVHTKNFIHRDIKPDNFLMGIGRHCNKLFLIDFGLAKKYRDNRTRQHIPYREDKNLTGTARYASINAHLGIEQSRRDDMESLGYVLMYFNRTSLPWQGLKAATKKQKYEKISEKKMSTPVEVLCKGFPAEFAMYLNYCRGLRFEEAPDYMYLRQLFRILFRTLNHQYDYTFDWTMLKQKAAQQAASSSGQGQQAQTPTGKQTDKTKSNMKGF
Target sequence in this assay (Q96SW2 whole entry): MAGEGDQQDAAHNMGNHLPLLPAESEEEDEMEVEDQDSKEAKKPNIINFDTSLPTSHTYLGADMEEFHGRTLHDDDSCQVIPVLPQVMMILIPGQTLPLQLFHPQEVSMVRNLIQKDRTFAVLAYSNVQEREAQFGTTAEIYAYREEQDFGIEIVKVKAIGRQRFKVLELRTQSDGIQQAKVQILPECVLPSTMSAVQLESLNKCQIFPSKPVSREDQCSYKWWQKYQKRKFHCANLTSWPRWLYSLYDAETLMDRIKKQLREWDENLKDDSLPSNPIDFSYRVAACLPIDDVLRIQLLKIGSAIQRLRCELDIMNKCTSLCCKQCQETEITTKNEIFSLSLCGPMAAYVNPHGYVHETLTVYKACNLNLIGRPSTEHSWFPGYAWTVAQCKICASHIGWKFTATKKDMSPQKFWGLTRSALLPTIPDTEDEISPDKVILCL

[4] = biological target: T1, Cereblon/Casein kinase I alpha; assay: Binding affinity to Halo-tagged CRBN (unknown origin)/HiBiT-tagged CK1alpha in HEK293 cells transfected with LgBiT expression vector assessed as ternary complex formation by measuring fold increase in NanoBRET signal preincubated with MG132 for 30 mins followed by compound addition and measured after 2 hrs by NanoBRET assay relative to control; type: cell-based
Target sequence in this assay (P48729 2-337 limits assumed): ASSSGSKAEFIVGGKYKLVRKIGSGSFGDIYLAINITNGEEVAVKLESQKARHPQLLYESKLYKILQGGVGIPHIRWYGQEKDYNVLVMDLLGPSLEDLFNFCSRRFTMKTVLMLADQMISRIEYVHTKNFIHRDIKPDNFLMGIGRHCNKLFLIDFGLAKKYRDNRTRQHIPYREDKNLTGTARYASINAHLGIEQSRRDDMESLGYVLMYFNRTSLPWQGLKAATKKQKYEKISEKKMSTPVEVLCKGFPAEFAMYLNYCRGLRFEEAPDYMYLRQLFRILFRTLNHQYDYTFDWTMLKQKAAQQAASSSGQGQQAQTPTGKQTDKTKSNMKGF
Target sequence in this assay (Q96SW2 whole entry partner): as the sequence (Q96SW2 whole entry) above

[5] = biological target: Protein cereblon/Eukaryotic peptide chain release factor GTP-binding subunit ERF3A (Homo sapiens) (UniProt Q96SW2+P15170); assay: PROTAC activity at CRBN (unknown origin)/human HiBiT-tagged GSPT1 transfected in HEK293 cells assessed as induction of GSPT1 degradation measured after 24 hrs by Nano-Glo reagent based luminescence analysis; type: cell-based
[6] = Metabolic stability in pooled human liver microsomes assessed as half-life at 10 uM measured upto 4 hrs in presence of NADPH by UPLC-MS/MS analysis; type: ADME, Microsome
[7] = Half-life in female CD-1 mouse at 3 mg/kg, iv administered as 5% v/v NMP, 5% v/v solutol HS-15, 20% PEG 400 and 70% v/v normal saline formulation and measured after 24 hrs; type: ADME, organism-based; details: in vivo
[8] = Apparent permeability across apical to basolateral side in MDCK-II cells at 10 micromol/L incubated for 1 hrs by UPLC/MS analysis; type: ADME, cell-based, Canis lupus familiaris; details: dog, mdck-ii, 1 h, 10 µM, dose 10 µmol/L
[9] = Clearance in female CD-1 mouse assessed as hepatic blood flow at 3 mg/kg, iv administered as 5% v/v NMP, 5% v/v solutol HS-15, 20% PEG 400 and 70% v/v normal saline formulation and measured after 24 hrs; type: ADME, organism-based; details: in vivo
[10] = AUClast in female CD-1 mouse at 3 mg/kg, iv administered as 5% v/v NMP, 5% v/v solutol HS-15, 20% PEG 400 and 70% v/v normal saline formulation and measured after 24 hrs; type: ADME, organism-based; details: in vivo
[11] = biological target: T1, Cereblon/Casein kinase I alpha; assay: PROTAC activity at CRBN/HiBiT-tagged CK1alpha in HEK293 cells transfected with LgBiT expression vector assessed as induction of CK1alpha degradation by measuring degradation rate at 10 uM measured after 24 hrs by luminescence based GloMax Discover assay; type: cell-based
Target sequence in this assay (P48729 2-337 limits assumed): as the sequence (P48729 2-337 limits assumed) above
Target sequence in this assay (Q96SW2 whole entry partner): as the sequence (Q96SW2 whole entry) above

[12] = Stability in human plasma assessed as half-life at 10 uM measured upto 48 hrs by UPLC-MS/MS analysis; type: ADME, cell-free
[13] = biological target: T1, Cereblon/Casein kinase I alpha; assay: Binding affinity to Halo-tagged CRBN (unknown origin)/HiBiT-tagged CK1alpha in HEK293 cells transfected with LgBiT expression vector assessed as ternary complex formation preincubated with MG132 for 30 mins followed by compound addition and measured after 2 hrs by NanoBRET assay; type: cell-based
Target sequence in this assay (P48729 whole entry): as the sequence (P48729 whole entry) above
Target sequence in this assay (Q96SW2 whole entry): as the sequence (Q96SW2 whole entry) above

[14] = Oral bioavailability in female CD-1 mouse at 10 mg/kg administered as 5% v/v NMP, 5% v/v solutol HS-15, 20% PEG 400 and 70% v/v normal saline formulation and measured after 24 hrs; type: ADME, organism-based; details: in vivo
[15] = system: HEK293; assay: Cytotoxicity against HEK293 cells expressing HiBiT-tagged CK1alpha at 0.0001 to 100 uM measured over 24 hrs by Cell-Titer Glo assay; type: toxicity, cell-based; details: human, hek293, 24 h, dose 0.0001-100 µM
[16] = Stability in mouse plasma assessed as half-life at 10 uM measured upto 48 hrs by UPLC-MS/MS analysis; type: ADME, cell-free; details: 48 h, 10 µM
[17] = system: MOLM-13; assay: Downregulation of CK1alpha protein level in human MOLM-13 cells at 1 uM measured after 4 hrs by TMT-proteomic analysis; type: functional, cell-based
[18] = system: MOLM-13; assay: Antiproliferative activity against human MOLM-13 cells incubated for 72 hrs by Cell-Titer Glo assay; type: functional, cell-based; details: MOLM-13, 72 h
[19] = Solubility of compound at pH 7.4 incubated for 18 hrs by UV-spectra analysis; type: physicochemical; details: buffer; for solubility: pH 7.4, 18 h
[20] = biological target: Cereblon/Ikaros (Homo sapiens, UniProt Q96SW2+Q13422); assay: PROTAC activity at CRBN/HiBiT-tagged IKZF1 in human Jurkat cells transfected with LgBiT expression vector assessed as induction of IKZF1 degradation measured after 24 hrs by luminescence based GloMax Discover assay; type: cell-based
[21] = Cmax in female CD-1 mouse at 3 mg/kg, iv administered as 5% v/v NMP, 5% v/v solutol HS-15, 20% PEG 400 and 70% v/v normal saline formulation and measured after 24 hrs; type: ADME, organism-based; details: in vivo
[22] = Metabolic stability in mouse liver microsomes assessed as half-life at 10 uM measured upto 4 hrs in presence of NADPH by UPLC-MS/MS analysis; type: ADME, Microsome; details: microsomes, 4 h, 10 µM
[23] = biological target: T1, Cereblon/Casein kinase I alpha; assay: PROTAC activity at CRBN/HiBiT-tagged CK1alpha in HEK293 cells transfected with LgBiT expression vector assessed as induction of CK1alpha degradation by measuring maximal efficacy at 10 uM measured after 24 hrs by luminescence based GloMax Discover assay relative to control; type: cell-based
Target sequence in this assay (P48729 2-337 limits assumed): as the sequence (P48729 2-337 limits assumed) above
Target sequence in this assay (Q96SW2 whole entry partner): as the sequence (Q96SW2 whole entry) above

[24] = Cmax in female CD-1 mouse at 10 mg/kg, po administered as 5% v/v NMP, 5% v/v solutol HS-15, 20% PEG 400 and 70% v/v normal saline formulation and measured after 24 hrs; type: ADME, organism-based; details: in vivo
[25] = AUClast in female CD-1 mouse at 10 mg/kg, po administered as 5% v/v NMP, 5% v/v solutol HS-15, 20% PEG 400 and 70% v/v normal saline formulation and measured after 24 hrs; type: ADME, organism-based; details: in vivo
[26] = Volume of distribution at steady state in female CD-1 mouse at 3 mg/kg, iv administered as 5% v/v NMP, 5% v/v solutol HS-15, 20% PEG 400 and 70% v/v normal saline formulation and measured after 24 hrs; type: ADME, organism-based; details: in vivo
[27] = system: Jurkat; assay: Cytotoxicity against human Jurkat cells expressing HiBiT-tagged IKZF1 at 0.0001 to 100 uM measured over 24 hrs by Cell-Titer Glo assay; type: toxicity, cell-based; details: dose 0.0001-100 µM
[28] = Cmax in female CD-1 mouse at 3 mg/kg, iv administered as 5% v/v NMP, 5% v/v solutol HS-15 and 70% v/v normal saline formulation and measured after 24 hrs; type: ADME, organism-based; details: in vivo
[29] = Half-life in female CD-1 mouse at 3 mg/kg, iv administered as 5% v/v NMP, 5% v/v solutol HS-15 and 70% v/v normal saline formulation and measured after 24 hrs; type: ADME, organism-based; details: in vivo
[30] = AUClast in female CD-1 mouse at 10 mg/kg, po administered as 5% v/v NMP, 5% v/v solutol HS-15 and 70% v/v normal saline formulation and measured after 24 hrs; type: ADME, organism-based; details: in vivo
[31] = Cmax in female CD-1 mouse at 10 mg/kg, po administered as 5% v/v NMP, 5% v/v solutol HS-15 and 70% v/v normal saline formulation and measured after 24 hrs; type: ADME, organism-based; details: in vivo
[32] = Volume of distribution at steady state in female CD-1 mouse at 3 mg/kg, iv administered as 5% v/v NMP, 5% v/v solutol HS-15 and 70% v/v normal saline formulation and measured after 24 hrs; type: ADME, organism-based; details: in vivo
[33] = Oral bioavailability in female CD-1 mouse at 10 mg/kg administered as 5% v/v NMP, 5% v/v solutol HS-15 and 70% v/v normal saline formulation and measured after 24 hrs; type: ADME, organism-based; details: in vivo
[34] = AUClast in female CD-1 mouse at 3 mg/kg, iv administered as 5% v/v NMP, 5% v/v solutol HS-15 and 70% v/v normal saline formulation and measured after 24 hrs; type: ADME, organism-based; details: in vivo
[35] = Metabolic stability in human hepatocytes assessed as half-life; type: ADME, cell-based, Hepatocyte
[36] = Metabolic stability in CD1 mouse hepatocytes assessed as half-life; type: ADME, cell-based, Hepatocyte; details: mouse

Sequence of Protein cereblon/Eukaryotic peptide chain release factor GTP-binding subunit ERF3A (Homo sapiens) (P15170 whole entry, looked up): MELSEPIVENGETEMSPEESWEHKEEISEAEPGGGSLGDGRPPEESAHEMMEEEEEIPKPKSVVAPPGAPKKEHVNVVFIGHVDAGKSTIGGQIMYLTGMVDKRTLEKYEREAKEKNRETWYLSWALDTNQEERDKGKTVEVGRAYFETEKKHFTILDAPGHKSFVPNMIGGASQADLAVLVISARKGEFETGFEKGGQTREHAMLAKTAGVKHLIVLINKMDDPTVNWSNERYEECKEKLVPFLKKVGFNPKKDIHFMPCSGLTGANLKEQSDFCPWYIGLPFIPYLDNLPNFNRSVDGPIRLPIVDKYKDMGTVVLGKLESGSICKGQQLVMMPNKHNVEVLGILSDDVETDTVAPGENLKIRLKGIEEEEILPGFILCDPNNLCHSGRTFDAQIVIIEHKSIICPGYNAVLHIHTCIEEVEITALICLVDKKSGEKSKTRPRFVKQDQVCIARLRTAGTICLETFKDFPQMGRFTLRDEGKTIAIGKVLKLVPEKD
Sequence of Protein cereblon/Eukaryotic peptide chain release factor GTP-binding subunit ERF3A (Homo sapiens) (Q96SW2 whole entry, looked up): as the sequence (Q96SW2 whole entry) above

O=C1CCC(N2Cc3cc(NC(=O)c4cccc(F)c4)ccc3C2=O)C(=O)N1 (stereo not given) gave a Tmax [1] of 0.25 h, a Papp [2] of 1.8 ×10⁻⁶ cm/s and a DC50 [3] of 4 nM. For the same molecule, the fold change (FC) [4] was 7.4, the Activity [5] was “inactive” and the t1/2 [6] was greater than 10 h. For the same molecule, the t1/2 [7] was 1.19 h, the Papp [8] was 0.6 ×10⁻⁶ cm/s and the QH [9] was 27%. The AUClast [10] was 2049 ng·h/mL, the Activity [11] was 1.3 h⁻¹ and the t1/2 [12] was 10.6 h. The EC50 [13] was 119 nM, the F [14] was 41% and the Activity [15] was “Non-Toxic”. The t1/2 [16] was 10 h, the Activity [17] was “Active” and the IC50 [18] was 28 nM. The solubility [19] was 19 µM (≈ 7.25 µg/mL), the Activity [20] was “inactive” and the Cmax [21] was 6450 ng/mL. For the same molecule, the t1/2 [22] was greater than 10 h, the Emax [23] was 88% and the Cmax [24] was 1617 ng/mL. For the same molecule, the AUClast [25] was 2804 ng·h/mL, the Vdss [26] was 0.88 L/kg and the Activity [27] was “Non-Toxic”.

With O=C1CCC(N2Cc3cc(Nc4noc5cc(F)ccc45)ccc3C2=O)C(=O)N1 (stereo not given) the Papp [2] was 10.4 ×10⁻⁶ cm/s, the DC50 [3] was 4 nM and the Papp [8] was 19.7 ×10⁻⁶ cm/s. For the same molecule, the Cmax [28] was 4240 ng/mL, the Activity [11] was 3.5 h⁻¹ and the t1/2 [29] was 1.98 h. The t1/2 [16] was 17 h, the IC50 [18] was 21 nM and the solubility [19] was 26 µM (≈ 10.3 µg/mL). For the same molecule, the t1/2 [22] was greater than 10 h, the Emax [23] was 95% and the AUClast [30] was 306 ng·h/mL. For the same molecule, the Cmax [31] was 330 ng/mL, the Vdss [32] was 1.34 L/kg and the F [33] was 10%. It also gave an AUClast [34] of 911 ng·h/mL and a t1/2 [35] greater than 3.6 h.

O=C1CCC(N2Cc3cc(Nc4noc5ccccc45)ccc3C2=O)C(=O)N1 (stereo not given) gave a Papp [2] of 26.2 ×10⁻⁶ cm/s, a DC50 [3] of 1 nM and a t1/2 [36] greater than 3.6 h. For the same molecule, the t1/2 [6] was greater than 10 h, the t1/2 [7] was 0.35 h and the Papp [8] was 24.5 ×10⁻⁶ cm/s. For the same molecule, the AUClast [10] was 832 ng·h/mL, the Activity [11] was 3.5 h⁻¹ and the t1/2 [12] was 8.5 h. The F [14] was 9.5%, the t1/2 [16] was 25 h and the Activity [17] was “Active”. It also gave an IC50 [18] of 13 nM, a solubility at 18 h ([19]; pH 7.4) of 36 µM (≈ 13.5 µg/mL) and a Cmax [21] of 2700 ng/mL. The t1/2 [22] was greater than 10 h, the Emax [23] was 95% and the Cmax [24] was 207 ng/mL. It also gave an AUClast [25] of 264 ng·h/mL, a Vdss [26] of 1.11 L/kg and a t1/2 [35] greater than 3.6 h.
